Where “and” joins values, the source holds several entries; their conditions need not be identical. Identical values can stand only once. Like-named read-outs stand apart in the source and are kept apart here. Blank lines part the entries; values can stand above or below the compound they belong to. Where a SMILES comes first, the peptide text is derived from it. The star is where a group is joined. MeOSuc = COC(=O)CCC(=O)*; CH2Cl = ClC*
Assays:
elastase = target: T1, elastase (Homo sapiens, UniProt P08246); assay: Elastase inhibition assay; type: biochemical
T1 sequence (P08246 30-247): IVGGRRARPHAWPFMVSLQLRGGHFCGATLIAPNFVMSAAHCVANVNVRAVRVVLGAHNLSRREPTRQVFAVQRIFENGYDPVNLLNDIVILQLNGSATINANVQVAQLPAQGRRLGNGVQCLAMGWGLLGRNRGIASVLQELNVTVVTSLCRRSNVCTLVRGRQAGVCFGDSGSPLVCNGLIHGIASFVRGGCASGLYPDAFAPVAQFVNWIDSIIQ
Procedure: An elastase inhibition assay was performed to determine the elastase inhibition potential of an extract derived from sugar cane of the present disclosure. […] To measure elastase inhibitory potential of an extract derived from sugar cane of the present disclosure, a test sample of an extract derived from sugar cane was mixed and incubated with N-methoxysuccinyl-[…]-chloromethyl ketone in tris-HCl buffer for 15 min. Then elastase was added to the mixture and incubated for 15 min. […] [formula] Wherein, • Abssample+elastase=absorbance of test sample after incubation with elastase, • Abssample-elastase=absorbance of test sample before incubation with elastase, • Absblank+elastase=absorbance of blank after incubation with elastase, and • Absblank-elastase=absorbance of blank before incubation with elastase. N-methoxysuccinyl-[…]-chloromethyl ketone, a human leukocyte elastase (HLE) inhibitor, was used as an assay control.

[1] = tested on: melanin production in human skin cells; assay: Cellular melanin pigmentation inhibition assay; type: cell-based; details: for EC50 / inhibition at 10 µM / inhibition at 0.31 µM / inhibition at 0.63 µM / inhibition at 1.25 µM / inhibition at 2.5 µM / inhibition at 5 µM: Homo sapiens
Procedure: A melanin production inhibition assay was performed to determine the potential of an extract derived from sugar cane of the present disclosure to inhibit melanin production.
To measure melanin pigmentation inhibition potential of an extract derived from sugar cane of the present disclosure, a test sample of an extract derived from sugar cane, in combination with theophylline, was added to a pre-incubated human skin cell culture. After incubating for 72 hours, the cells were washed with phosphate-buffered saline (PBS), lysed in 1 M NaOH, and boiled for 5 minutes to solubilize the melanin. The inhibition rates of the lysates were measured at 490 nm and expressed as a percentage relative to the value of the untreated control.
Chloroquine, a known melanin production inhibitor, was used as an assay control. Two batches (replicate 1 and replicate 2) of chloroquine in a concentration from 0.31 μM to 10 μM were used in the control assay.

[2] = read-out: Inhibition (%) Average
[3] = read-out: Inhibition (%) Relicate 1
[4] = read-out: Inhibition (%) Replicate 2
[5] = read-out: Melanin inhibition (%) Average
[6] = read-out: Melanin inhibition (%) Replicate 1
[7] = read-out: Melanin inhibition (%) Replicate 2

SMILES: COC(=O)CCC(=O)NC(C)C(=O)NC(C)C(=O)N1CCCC1C(=O)NC(C(=O)CCl)C(C)C (stereo not drawn) [N-methoxysuccinyl-Ala-Ala-Pro-Val-chloromethyl ketone] (MeOSuc-AAPV-CH2Cl; configuration not given here)
- Concentration inducing the maximum inhibition (elastase) (elastase): 250 µM
- inhibition at 250 µM (elastase; Conc. 250.00 uM, read-out: Inhibition (%) Average): 87.7%
- inhibition at 250 µM (elastase; Conc. 250.00 uM, read-out: Inhibition (%) Relicate 1): 87.6%
- inhibition at 250 µM (elastase; Conc. 250.00 uM, read-out: Inhibition (%) Replicate 2): 87.8%
- inhibition at 0.12 µM (elastase; [2]): 10.3%
- inhibition at 0.24 µM (elastase; [2]): 18.2%
- inhibition at 0.49 µM (elastase; [2]): 30.3%
- inhibition at 0.98 µM (elastase; [2]): 45.7%
- inhibition at 1.95 µM (elastase; [2]): 59.2%
- inhibition at 3.91 µM (elastase; [2]): 68.7%
- inhibition at 7.81 µM (elastase; [2]): 76.3%
- inhibition at 15.63 µM (elastase; [2]): 81%
- inhibition at 31.25 µM (elastase; [2]): 84.4%
- inhibition at 62.5 µM (elastase; [2]): 86.1%
- inhibition at 125 µM (elastase; [2]): 87.2%
- inhibition at 0.12 µM (elastase; [3]): 10.1%
- inhibition at 0.24 µM (elastase; [3]): 18.3%
- inhibition at 0.49 µM (elastase; [3]): 29.9%
- inhibition at 0.98 µM (elastase; [3]): 45.3%
- inhibition at 1.95 µM (elastase; [3]): 58.8%
- inhibition at 3.91 µM (elastase; [3]): 68.5%
- inhibition at 7.81 µM (elastase; [3]): 76.2%
- inhibition at 15.63 µM (elastase; [3]): 81.1%
- inhibition at 31.25 µM (elastase; [3]): 84.3%
- inhibition at 62.5 µM (elastase; [3]): 86%
- inhibition at 125 µM (elastase; [3]): 87.1%
- inhibition at 0.12 µM (elastase; [4]): 10.5%
- inhibition at 0.24 µM (elastase; [4]): 18.2%
- inhibition at 0.49 µM (elastase; [4]): 30.6%
- inhibition at 0.98 µM (elastase; [4]): 46.1%
- inhibition at 1.95 µM (elastase; [4]): 59.6%
- inhibition at 3.91 µM (elastase; [4]): 69%
- inhibition at 7.81 µM (elastase; [4]): 76.3%
- inhibition at 15.63 µM (elastase; [4]): 80.8%
- inhibition at 31.25 µM (elastase; [4]): 84.5%
- inhibition at 62.5 µM (elastase; [4]): 86.2%
- inhibition at 125 µM (elastase; [4]): 87.3%
- inhibition at 250 µM (elastase; read-out: Maximum inhibition achieved (elastase)): 87.7%

- EC50 [1]: 0.74 µg/mL and 1.43 µM
- EC50 ([1]; 72 h, read-out: EC50 (melanin production inhibition)): 1430 nM
SMILES: CCN(CC)CCCC(C)Nc1ccnc2cc(Cl)ccc12 (stereo not drawn) [chloroquine, Chloroquine]
- Concentration inducing the maximum inhibition [1]: 10 µM
- inhibition at 10 µM ([1]; read-out: Maximum inhibition achieved): 88.1%
- inhibition at 0.31 µM [1, 5]: 0.92%
- inhibition at 0.63 µM [1, 5]: 16.1%
- inhibition at 1.25 µM [1, 5]: 34.3%
- inhibition at 2.5 µM [1, 5]: 76.1%
- inhibition at 5 µM [1, 5]: 83.1%
- inhibition at 10 µM [1, 5]: 88.1%
- inhibition at 0.31 µM [1, 6]: 1.77%
- inhibition at 0.63 µM [1, 6]: 15.5%
- inhibition at 1.25 µM [1, 6]: 36.5%
- inhibition at 2.5 µM [1, 6]: 76.6%
- inhibition at 5 µM [1, 6]: 79.8%
- inhibition at 10 µM [1, 6]: 85.7%
- inhibition at 0.31 µM [1, 7]: 0.06%
- inhibition at 0.63 µM [1, 7]: 16.7%
- inhibition at 1.25 µM [1, 7]: 32.1%
- inhibition at 2.5 µM [1, 7]: 75.6%
- inhibition at 5 µM [1, 7]: 86.4%
- inhibition at 10 µM [1, 7]: 90.5%

Reference: patent US12370232B2, “Use of polyphenol containing sugar cane extracts for preventing, improving or treating a skin condition” (priority 2017, dated 2025)
